Where two headings read alike, the source gives them in different places.
Key:
[1] = molecular target: T1, TbGSK3β (Trypanosoma brucei brucei, UniProt Q388M1); experiment: biochemical; assay type: biochemical; settings: for Ratio Preinc/no preinc: % inhibition at 30 min preincubation / % inhibition at 0 min preincubation at 10 μM ATP; for ATP competition following preincubation / ATP competition without preincubation: 10 μM versus 100 μM ATP; for ATP competition following preincubation: 30 min preincubation; for time dependence: effect of 30 min preincubation on TbGSK3β activity: four point MMOA assay, 10 μM and 100 μM ATP
T1 construct: Full-length TbGSK3β (Gene DB ID Tb927.10.13780); 6X His (C); made in house; host or cells: BL21 (DE3) E. coli
T1 sequence (Q388M1 1-352): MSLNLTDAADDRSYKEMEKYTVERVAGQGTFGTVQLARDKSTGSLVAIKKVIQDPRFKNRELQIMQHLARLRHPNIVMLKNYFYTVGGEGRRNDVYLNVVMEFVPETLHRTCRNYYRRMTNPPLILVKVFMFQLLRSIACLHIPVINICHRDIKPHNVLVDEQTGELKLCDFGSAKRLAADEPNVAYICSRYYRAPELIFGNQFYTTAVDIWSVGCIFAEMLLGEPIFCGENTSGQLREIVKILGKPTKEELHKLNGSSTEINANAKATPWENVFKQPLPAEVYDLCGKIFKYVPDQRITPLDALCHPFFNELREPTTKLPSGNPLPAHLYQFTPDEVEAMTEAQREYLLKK
Procedure: TbGSK3β activity was measured by following the ADP formation associated with the phosphorylation of GSM peptide and detected with ADP-Glo at 23°C. The enzyme reaction was conducted in a volume of 20 μL in a buffer containing 20 mM NaCl, 15 mM HEPES pH 7.4, 1 mM EGTA, 10 mM MgCl2, 0.02% Tween. These assays contained GSM at 10μM (approximating Km) or 80 μM (approximating Vmax). ATP was added at 10 μM and 100 μM to approximate Km and Vmax, respectively.
All reactions were incubated for 5 minutes in microcentrifuge tubes, and reactions were terminated at 80°C for 4 min. Of 20 μL reactions, 17.5 μL were transferred into 384 well-plates. Promega ADP-Glo procedures were carried out and phosphorylation measured by Luminoskan Ascent (Thermo Labsystems, Waltham MA). For pre-incubation experiments, TbGSK3β was preincubated at room temperature with inhibitor, GSM and buffer for 30 min. Inhibitors were added in DMSO to a final concentration of DMSO in the reactions of <5%. The kinase reaction was then started by adding ATP. For non-preincubation reactions, the kinase reactions were started by adding TbGSK3β to a mixture containing inhibitor, ATP, GSM and buffer. DMSO was added to all control reactions.
IC50 for inhibition TbGSK3β was determined as a function of preincubation time (Fig 3). Preincubated reactions were preincubated with inhibitor, TbGSK3β, GSM peptide, and buffer at room temperature; after 30 minutes reactions were initiated with the addition of ATP. Reactions with 0 min preincubation were initiated with the addition of TbGSK3β. Reactions were run for 5 min at room temperature, and stopped at 80°C. ADP product formation was measured by ADP-Glo kit.
Preincubated reactions were preincubated with inhibitor, TbGSK3β, GSM peptide, and buffer at room temperature; after 30 minutes reactions were initiated with the addition of ATP. Reactions with 0 min preincubation were initiated with the addition of TbGSK3β. Reactions were run for 5 min at room temperature, and stopped heat at 80°C, followed by ice bath, and ADP product formation was measured by ADP-Glo kit. All concentrations of tideglusib and controls with and without TbGSK3β were kept at 1% DMSO. Black = 30 minute preincubation Grey = 0 minute preincubation.
Time dependent inhibition was evaluated by preincubation of TbGSK3β with 60 nM tideglusib and 6 nM GW-8510 with 10μM and 100μM ATP. […] (B). […] All reactions preincubated or not preincubated with TbGSK3β for 30 min at room temperature. Experiments run with 10μM GSM peptide, 10μM ATP, and buffer. Minute preincubation (30 min) was preincubated with inhibitor, TbGSK3β, GSM peptide, and buffer. ATP was mixed to initiate reaction. No preincubation contained inhibitor, GSM peptide, ATP, and buffer. The reaction was initiated with TbGSK3β. Reactions were run at room temperature for 5 min and stopped at 80°C. ADP formed was measured by ADP-Glo kit. Values are mean +/- standard error. N = 3 for each experiment and experiments were run in duplicates. Control reactions contained DMSO and background was determined using a zero time incubation and subtracted from all reactions. Black = 30 min preincubation Grey = No preincubation.

[2] = system: Trypanosomes; experiment: Trypanosome viability after short term (6 hour) exposure and wash-out; assay type: cell-based, Trypanosoma brucei; settings: for trypanosome proliferation/viability after removal of drug following 6 hour exposure: drug-free medium, monitored for 44 hours
Procedure: The effect of tideglusib on trypanosome viability after short term exposure was evaluated to determine if the molecule is cidal or cytostatic.
Fig 9 Trypanosome viability after short term exposure with tideglusib. Trypanosomes (5 x 10^5/mL in HMI-9 medium) were treated with pentamidine (or water solvent control) or tideglusib (5 μM, 10 μM, or DMSO solvent control) for 6 hours (37°C, 5% CO2) and then cultured in drug-free treatment as detailed in panel (A). Trypanosome densities were determined after 6 hour treatment (B), and the drugs washed from the cells by centrifugation and resuspension in fresh medium (to a density of 0.5 x 10^5/mL). Trypanosome proliferation in the fresh medium was monitored for 44 hours (37°C, 5% CO2) (C). Error between four separate cultures are shown.

[3] = molecular target: T1, TbGSK3β; experiment: Irreversibility: TbGSK3β activity following 100-fold dilution; assay type: biochemical; settings: 100 nM inhibitor preincubated 30 min with 50 nM TbGSK3β, diluted 100 fold into 100 μM ATP, 80 μM GSM; up to 2 hr
Procedure: Tideglusib and GW8510 were evaluated for irreversibility by measuring the TbGSK3β activity following a 100-fold dilution with reaction buffer. In these experiments tideglusib and GW8510 [100 nM] were preincubated with 50 nM TbGSK3β for 30 min at which time the reaction was diluted 100 fold into a solution containing 100 μM ATP and 80 μM GSM. The activity was then measured for up to two hours (Fig 6). […] The final concentration of tideglusib and GW8510 following dilution was 1 nM.
Tideglusib [100 nM, GW8510 [100 nM] and DMSO were preincubated with 50 nM TbGSK3 for 30 min. After a 100 fold dilution activity was measured and compared to DMSO containing reaction. Data expressed percent inhibition of DMSO activity. Data represent the average of two separate experiments for GW8510 and three for tideglusib. All points in each experiment were run in duplicate.

[4] = system: Bloodstream form Trypanosoma brucei; experiment: Parasite assay: trypanosome proliferation, 48 hours, Coulter Counter; assay type: cell-based, strain CA427; settings: read-out: GI50 (concentration at which trypanosome proliferation was inhibited by 50%)
[5] = system: human GSK3β; design: method as in PMID 22102280; settings: following preincubation; read-out: IC50 against human GSK3β; cited from earlier work
[6] = design: method as in PMID 19523516; settings: mice; oral administration; cited from earlier work
[7] = cited from earlier work
[8] = system: T. brucei brucei strain 427; settings: cited from earlier work
[9] = substrate: CC(C)C[C@H](NC(=O)[C@H](CO)NC(=O)[C@@H]1CCCN1C(=O)[C@H](CO)NC(=O)[C@@H]1CCCN1C(=O)[C@@H]1CCCN1C(=O)[C@@H](NC(=O)[C@H](CO)NC(=O)[C@H](C)NC(=O)[C@@H]1CCCN1C(=O)[C@H](CCCNC(=N)N)NC(=O)[C@H](CCCNC(=N)N)NC(=O)[C@@H](N)CCCNC(=N)N)C(C)C)C(=O)N[C@@H](CO)C(=O)N[C@@H](CCCNC(=N)N)C(=O)N[C@@H](Cc1c[nH]cn1)C(=O)N[C@@H](CO)C(=O)N[C@@H](COP(=O)(O)O)C(=O)N[C@@H](Cc1c[nH]cn1)C(=O)N[C@@H](CCC(N)=O)C(=O)N[C@@H](CCCNC(=N)N)C(=O)N[C@@H](CCCNC(=N)N)C(=O)O; experiment: purified protein, by the assay type; assay type: biochemical; settings: other: substrate versus rate plots (Fig 2); pH 7.4
[10] = 10 μM ATP and 10 μM GSM, ± standard deviation, n = 3, read-out: IC50
[11] = IC50, 10 μM ATP and 10 μM GSM, ± standard deviation, n = 3
[12] = IC50 for inhibition TbGSK3β, non-preincubated reactions, 0 min preincubation, 10 μM GSM, 10 μM ATP, kinase 10 nM
[13] = IC50 for inhibition TbGSK3β, preincubated reactions, 30 min preincubation with inhibitor, TbGSK3β, GSM, 10 μM GSM, 10 μM ATP, kinase 10 nM

## Nc1cccc(-c2cc3c(Oc4cccc(O)c4)ncnc3[nH]2)c1 [TWS119]
[1]; [10]
  IC50: 600 ± 140 nM
[1]
  Ratio Preinc/no preinc: 1

## Cc1cc(Nc2nc(N[C@@H](C)c3ccc(F)cc3)c(C#N)cc2F)n[nH]1 [AZ960]
[1]; [11]
  IC50: 4100 ± 1270 nM

## N=C(N)c1ccc(OCCCCCOc2ccc(C(=N)N)cc2)cc1 [pentamidine]
[2]
  trypanosome proliferation/viability after removal of drug following 6 hour exposure: killed all observed trypanosomes

## Nc1ncnc2c1ncn2[C@@H]1O[C@H](COP(=O)(O)OP(=O)(O)OP(=O)(O)O)[C@@H](O)[C@H]1O [ATP]
[1]; substrate versus rate plots (Fig 2)
  Km: 21 µM

## O=c1sn(-c2cccc3ccccc23)c(=O)n1Cc1ccccc1 [Tideglusib]
[1]
  ATP competition following preincubation: non-competitive behavior
  time dependence: effect of 30 min preincubation on TbGSK3β activity: decreased the enzyme activity following preincubation
[1]; no preincubation
  ATP competition without preincubation: competed with ATP
[1]; 80 μM versus 10 μM GSM, 10 μM ATP, tideglusib 0.06 μM (S1 Fig)
  shift in activity at higher concentration of peptide substrate GSM: […]
[1]; [11]
  IC50: […]
[1]; [12]
  IC50: […]
[1]; [13]
  IC50: 43 nM
[1]; no preincubation, 100 μM ATP, 80 μM GSM, 5-60 min
  progress curves: percent inhibition / rate of product formation with time: […]
[3]
  enzyme activity following 100-fold dilution (reversibility): […]
[4]
  GI50: 2300 nM
[2]; 10 μM, 5 x 10^5/mL
  trypanosome proliferation during 6 hour treatment: […]
[2]; 5 or 10 μM, high trypanosome density 5 x 10^5/mL
  trypanosome growth during 6 hour treatment: markedly slowed trypanosome growth
[2]; after the initial lag in recovered growth
  growth rate after recovery from exposure: […]
[2]
  trypanosome proliferation/viability after removal of drug following 6 hour exposure: […]
[2]; high trypanosome cell densities
  cidal or cytostatic: cytostatic
[5]
  IC50: […]
[6]
  Blood levels (molar): ~6.7 µM
[7]; Alzheimer's disease and progressive supranuclear palsy
  tolerability in phase II studies: well-tolerated
[7]; escalating doses of up to 1000 mg/day, 30 Alzheimer's patients, 6 weeks
  tolerability in clinical trial: generally well tolerated

## Cc1c[nH]c(-c2cnc(NCCNc3ccc(C#N)cn3)nc2-c2ccc(Cl)cc2Cl)n1 [CT99021]
[1]; [10]
  IC50: 200 ± 80 nM
[1]
  Ratio Preinc/no preinc: 0.97

## Cc1cc(Nc2cc(CN3CCOCC3)c3nc(C)c(Cc4ccc(Cl)cc4F)n3n2)n[nH]1 [LY278544]
[1]; [10]
  IC50: 500 ± 120 nM
[1]
  Ratio Preinc/no preinc: 0.83

## O=C1Nc2ccc3ncsc3c2/C1=C/Nc1ccc(S(=O)(=O)Nc2ccccn2)cc1 [GW8510]
[1]; 10 μM ATP, irrespective of preincubation time, four point MMOA assay (Fig 4)
  percent inhibition of activity at lower ATP: 67%
[1]
  ATP competition following preincubation: competitive
  time dependence: effect of 30 min preincubation on TbGSK3β activity: no effect
[1]; no preincubation
  ATP competition without preincubation: competed with ATP
[1]; 100 μM ATP, irrespective of preincubation time, four point MMOA assay (Fig 4)
  percent inhibition of activity at higher ATP: 28%
[1]; [12]
  IC50: 15.1 nM
[1]; [13]
  IC50: 14.5 nM
[3]
  enzyme activity following 100-fold dilution (reversibility): enzyme activity was recovered
[8]; 48 hr, read-out: EC50 in parasite growth assay
  EC50: 119 nM
[8]; read-out: cellular activity against T. brucei
  EC50: 120 nM

B1: TbGSK3β (Trypanosoma brucei brucei TREU927) (protein)
chain: MSLNLTDAADDRSYKEMEKYTVERVAGQGTFGTVQLARDKSTGSLVAIKKVIQDPRFKNRELQIMQHLARLRHPNIVMLKNYFYTVGGEGRRNDVYLNVVMEFVPETLHRTCRNYYRRMTNPPLILVKVFMFQLLRSIACLHIPVINICHRDIKPHNVLVDEQTGELKLCDFGSAKRLAADEPNVAYICSRYYRAPELIFGNQFYTTAVDIWSVGCIFAEMLLGEPIFCGENTSGQLREIVKILGKPTKEELHKLNGSSTEINANAKATPWENVFKQPLPAEVYDLCGKIFKYVPDQRITPLDALCHPFFNELREPTTKLPSGNPLPAHLYQFTPDEVEAMTEAQREYLLKK
notes: Full-length TbGSK3β (Gene DB ID Tb927.10.13780); 6X His (C); made in house; host or cells: BL21 (DE3) E. coli
[9]
  Km: 23 µM

From PMC4778863, “A Four-Point Screening Method for Assessing Molecular Mechanism of Action (MMOA) Identifies Tideglusib as a Time-Dependent Inhibitor of Trypanosoma brucei GSK3β” (PLoS Neglected Tropical Diseases, 2016)
